Reference: ChEMBL document CHEMBL5137093, “Improving Drug Delivery While Tailoring Prodrug Activation to Modulate Cmax and Cmin by Optimization of (Carbonyl)oxyalkyl Linker-Based Prodrugs of Atazanavir” (J Med Chem, 2022)

What was measured:
[1] = Aqueous stability of the compound in phosphate buffer at pH 6.5 assessed as compound half life measured after 24 hrs by UPLC analysis; type: physicochemical; conditions: buffer, pH 6.5, 24 h, 24 h
[2] = Aqueous solubility of compound at pH 1 by UPLC analysis; type: physicochemical; conditions: buffer
[3] = Aqueous solubility of compound at pH 4 by UPLC analysis; type: physicochemical; conditions: buffer
[4] = Cmax in Sprague-Dawley rat at 3 ml/kg,po measured upto 24 hrs by UPLC-MS/MS analysis; type: ADME; design: dose 3 ml/kg, time < 24 hrs, route po; conditions: Sprague-Dawley, in vivo, 3 ml/kg
[5] = Tmax in Sprague-Dawley rat at 3 ml/kg,po measured upto 24 hrs by UPLC-MS/MS analysis; type: ADME; conditions: Sprague-Dawley, in vivo, read-out: Tmax
[6] = AUClast in Sprague-Dawley rat at 3 ml/kg,po measured upto 24 hrs by UPLC-MS/MS analysis; type: ADME; design: time < 24 hrs, dose 3 ml/kg, route po; conditions: Sprague-Dawley, in vivo, 3 ml/kg
[7] = Relative Cmax ratio of Atazanavir in Sprague-Dawley rat at 3 ml/kg,po measured upto 24 hrs by UPLC-MS/MS analysis; type: ADME; conditions: in vivo
[8] = Relative AUC ratio of Atazanavir in Sprague-Dawley rat at 3 ml/kg,po measured upto 24 hrs by UPLC-MS/MS analysis; type: ADME; conditions: in vivo
[9] = Fold ratio of total AUC of Atazanavir in Sprague-Dawley rat at 3 ml/kg,po measured upto 24 hrs by UPLC-MS/MS analysis; type: ADME; conditions: in vivo
[10] = Ratio of Cmax/Cmin of Atazanavir in Sprague-Dawley rat at 3 ml/kg,po measured after 24 hrs by UPLC-MS/MS analysis; type: ADME; conditions: in vivo
[11] = Ratio of AUC of Atazanavir in Sprague-Dawley rat at 3 ml/kg,po measured upto 24 hrs by UPLC-MS/MS analysis; type: ADME; conditions: in vivo
[12] = Half life in rat hepatocyte measured upto 120 mins by UPLC-MS/MS analysis; type: ADME, cell-based; conditions: hepatocytes
[13] = Half life in rat hepatocyte measured upto 120 mins in presence of ABT by UPLC-MS/MS analysis; type: ADME, cell-based; conditions: hepatocytes, with ABT
[14] = Half life in rat hepatocyte measured upto 120 mins in presence of PMSF by UPLC-MS/MS analysis; type: ADME, cell-based; conditions: hepatocytes, with PMSF
[15] = Half life in rat hepatocyte measured upto 120 mins in presence of PMSF and ABT by UPLC-MS/MS analysis; type: ADME, cell-based; conditions: hepatocytes, with PMSF and ABT
[16] = Metabolic stability in rat liver microsomes assessed as half life; type: ADME, Microsome
[17] = Metabolic stability in dog liver microsomes assessed as half life; type: ADME, Canis lupus familiaris, Microsome
[18] = Metabolic stability in monkey liver microsomes assessed as half life; type: ADME, Macaca mulatta, Microsome; conditions: rhesus monkey
[19] = Metabolic stability in human liver microsomes assessed as half life; type: ADME, Microsome
[20] = Metabolic stability in rat intestine microsomes assessed as half life; type: ADME, Microsome
[21] = Metabolic stability in dog intestine microsomes assessed as half life; type: ADME, Canis lupus familiaris, Microsome
[22] = Metabolic stability in monkey intestine microsomes assessed as half life; type: ADME, Macaca mulatta, Microsome; conditions: rhesus monkey
[23] = Metabolic stability in human intestine microsomes assessed as half life; type: ADME, Microsome
[24] = Metabolic stability in rat liver microsomes assessed as half life in presence of NADPH; type: ADME, Microsome
[25] = Metabolic stability in dog liver microsomes assessed as half life in presence of NADPH; type: ADME, Canis lupus familiaris, Microsome
[26] = Metabolic stability in monkey liver microsomes assessed as half life in presence of NADPH; type: ADME, Macaca mulatta, Microsome; conditions: rhesus monkey
[27] = Metabolic stability in human liver microsomes assessed as half life in presence of NADPH; type: ADME, Microsome
[28] = Metabolic stability in rat intestine microsomes assessed as half life in presence of NADPH; type: ADME, Microsome
[29] = Metabolic stability in dog intestine microsomes assessed as half life in presence of NADPH; type: ADME, Canis lupus familiaris, Microsome
[30] = Metabolic stability in monkey intestine microsomes assessed as half life in presence of NADPH; type: ADME, Macaca mulatta, Microsome; conditions: rhesus monkey
[31] = Metabolic stability in human intestine microsomes assessed as half life in presence of NADPH; type: ADME, Microsome
[32] = Cmax in Sprague-Dawley rat at 30 ml/kg,po measured upto 24 hrs by UPLC-MS/MS analysis; type: ADME; design: time < 24 hrs, dose 30 ml/kg, route po; conditions: in vivo
[33] = Tmax in Sprague-Dawley rat at 30 ml/kg,po measured upto 24 hrs by UPLC-MS/MS analysis; type: ADME; conditions: in vivo
[34] = AUClast in Sprague-Dawley rat at 30 ml/kg,po measured upto 24 hrs by UPLC-MS/MS analysis; type: ADME; design: time < 24 hrs, dose 30 ml/kg, route po; conditions: in vivo
[35] = Relative Cmax ratio of Atazanavir in Sprague-Dawley rat at 30 ml/kg,po measured upto 24 hrs by UPLC-MS/MS analysis; type: ADME; conditions: in vivo
[36] = Relative AUC ratio of Atazanavir in Sprague-Dawley rat at 30 ml/kg,po measured upto 24 hrs by UPLC-MS/MS analysis; type: ADME; conditions: in vivo
[37] = Fold ratio of total AUC of Atazanavir in Sprague-Dawley rat at 30 ml/kg,po measured upto 24 hrs by UPLC-MS/MS analysis; type: ADME; conditions: in vivo
[38] = Ratio of Cmax/Cmin of Atazanavir in Sprague-Dawley rat at 30 ml/kg,po measured after 24 hrs by UPLC-MS/MS analysis; type: ADME; conditions: in vivo
[39] = Ratio of AUC of Atazanavir in Sprague-Dawley rat at 30 ml/kg,po measured upto 24 hrs by UPLC-MS/MS analysis; type: ADME; conditions: in vivo
[40] = Cmax in Sprague-Dawley rat at 1 ml/kg,iv measured upto 24 hrs by UPLC-MS/MS analysis; type: ADME; design: dose 1 ml/kg, time < 24 hrs, route iv; conditions: in vivo
[41] = AUClast in Sprague-Dawley rat at 1 ml/kg,iv measured upto 24 hrs by UPLC-MS/MS analysis; type: ADME; design: dose 1 ml/kg, time < 24 hrs, route iv; conditions: in vivo
[42] = Cmin in Sprague-Dawley rat at 1 ml/kg,iv measured after 24 hrs by UPLC-MS/MS analysis; type: ADME; conditions: in vivo, read-out: Cmin
[43] = Clearance in Sprague-Dawley rat at 1 ml/kg,iv measured upto 24 hrs by UPLC-MS/MS analysis; type: ADME; conditions: in vivo
[44] = Half life in Sprague-Dawley rat at 1 ml/kg,iv measured upto 24 hrs by UPLC-MS/MS analysis; type: ADME; conditions: in vivo
[45] = Volume of distribution at steady state in Sprague-Dawley rat at 1 ml/kg,iv measured upto 24 hrs by UPLC-MS/MS analysis; type: ADME; conditions: in vivo, read-out: Vdss
[46] = Relative Cmax ratio of Atazanavir in Sprague-Dawley rat at 1 ml/kg,iv measured upto 24 hrs by UPLC-MS/MS analysis; type: ADME; conditions: in vivo
[47] = Relative AUC ratio of Atazanavir in Sprague-Dawley rat at 1 ml/kg,iv measured upto 24 hrs by UPLC-MS/MS analysis; type: ADME; conditions: in vivo
[48] = Fold ratio of total AUC of Atazanavir in Sprague-Dawley rat at 1 ml/kg,iv measured upto 24 hrs by UPLC-MS/MS analysis; type: ADME; conditions: in vivo
[49] = Ratio of Cmax/Cmin of Atazanavir in Sprague-Dawley rat at 1 ml/kg,iv measured after 24 hrs by UPLC-MS/MS analysis; type: ADME; conditions: in vivo
[50] = Ratio of AUC of Atazanavir in Sprague-Dawley rat at 1 ml/kg,iv measured upto 24 hrs by UPLC-MS/MS analysis; type: ADME; conditions: in vivo

## COC(=O)N[C@H](C(=O)N[C@@H](Cc1ccccc1)[C@H](CN(Cc1ccc(-c2ccccn2)cc1)NC(=O)[C@@H](NC(=O)OC)C(C)(C)C)OC(=O)OC(OC(=O)[C@@H](N)C(C)C)C(C)C)C(C)(C)C (stereo in doubt; 3s)
[1]
  t1/2: 4.9 h
[2]
  solubility: > 2100 µg/mL
[3]
  solubility: > 2300 µg/mL
[4]
  Cmax: 19 nM
[5]
  Tmax: 0.6 h
[6]
  AUC(0-t) at 24 h: 0.044 µM·h
[7]
  Ratio: 3.8
[8]
  Ratio: 6.7
[9]
  Ratio: 6.8
[10]
  Ratio: 204.8
[11]
  Ratio: 0.02
[12]
  half-life: 0.35 h
[13]
  half-life: 0.433 h
[14]
  half-life: 1.43 h
[15]
  half-life: 1.43 h
[16]
  half-life: 3.73 h
[17]
  half-life: 4.82 h
[18]
  half-life: 2.45 h
[19]
  half-life: 2.82 h
[20]
  half-life: > 2 h
[21]
  half-life: > 2 h
[22]
  half-life: > 2 h
[23]
  half-life: 1.83 h
[24]
  half-life: 0.833 h
[25]
  half-life: 9 min
[26]
  half-life: 9 min
[27]
  half-life: 1.18 h
[28]
  half-life: 1.78 h
[29]
  half-life: 0.883 h
[30]
  half-life: 0.4 h
[31]
  half-life: 0.967 h
[32]
  Cmax: 189 nM
[33]
  Tmax: 0.8 h
[34]
  AUC(0-t) at 24 h: 0.601 µM·h
[35]
  Ratio: 2.1
[36]
  Ratio: 1.32
[37]
  Ratio: 1.35
[38]
  Ratio: 329.4
[39]
  Ratio: 0.02
[40]
  Cmax: 151 nM
[41]
  AUC(0-t) at 24 h: 0.17 µM·h
[42]
  concentration at 24 h: 2 nM
[43]
  clearance: 102 mL/min/kg
[44]
  half-life: 6 h
[45]
  Vd: 35 L/kg
[46]
  Ratio: 2.07
[47]
  Ratio: 7
[48]
  Ratio: 7.3
[49]
  Ratio: 1040.4
[50]
  Ratio: 0.04
